In the assay the target is T1, jack bean α-mannosidase (Canavalia ensiformis, UniProt C0HJB3).
T1 construct: purchased Sigma–Aldrich
T1 sequence (C0HJB3 1-981): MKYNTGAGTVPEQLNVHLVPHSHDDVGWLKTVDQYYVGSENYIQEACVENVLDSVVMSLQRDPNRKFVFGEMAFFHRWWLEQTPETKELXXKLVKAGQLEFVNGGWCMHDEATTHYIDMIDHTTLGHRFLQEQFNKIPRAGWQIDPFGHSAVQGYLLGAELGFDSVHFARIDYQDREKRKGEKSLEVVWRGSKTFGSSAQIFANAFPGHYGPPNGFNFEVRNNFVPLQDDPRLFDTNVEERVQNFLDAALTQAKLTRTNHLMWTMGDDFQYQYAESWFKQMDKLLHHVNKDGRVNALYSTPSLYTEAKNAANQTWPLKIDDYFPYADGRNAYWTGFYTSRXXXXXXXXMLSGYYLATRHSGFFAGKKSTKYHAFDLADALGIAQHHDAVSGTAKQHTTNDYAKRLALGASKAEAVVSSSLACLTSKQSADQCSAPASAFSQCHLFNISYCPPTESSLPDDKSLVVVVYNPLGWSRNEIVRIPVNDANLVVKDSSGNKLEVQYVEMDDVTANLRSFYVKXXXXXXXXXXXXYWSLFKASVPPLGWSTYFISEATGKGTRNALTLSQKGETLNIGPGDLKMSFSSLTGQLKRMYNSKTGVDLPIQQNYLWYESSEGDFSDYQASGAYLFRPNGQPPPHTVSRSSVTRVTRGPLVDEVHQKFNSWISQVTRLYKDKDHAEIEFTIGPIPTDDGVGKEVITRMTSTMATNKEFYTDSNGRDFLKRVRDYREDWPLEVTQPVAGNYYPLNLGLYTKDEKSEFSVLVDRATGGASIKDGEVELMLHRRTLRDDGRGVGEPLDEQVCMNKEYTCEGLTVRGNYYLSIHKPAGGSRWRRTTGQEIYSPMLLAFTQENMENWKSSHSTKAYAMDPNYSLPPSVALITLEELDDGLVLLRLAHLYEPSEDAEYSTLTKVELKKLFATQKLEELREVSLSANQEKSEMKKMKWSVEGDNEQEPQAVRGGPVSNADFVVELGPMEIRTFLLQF
As to the kind of experiment: Jack bean α-mannosidase inhibition assay (Ki, Dixon method). It is filed as biochemical. As to conditions: for rp (relative inhibition potency): Ki (monovalent reference)/Ki (glycocluster), reference 11a for C6, 11b for C9 linker; for rp/n: relative inhibition potency/number of iminosugar units (valency-corrected). Here is the method:
General procedure for inhibition assay
The p-nitrophenyl-α-D-mannopyranoside and α-mannosidase (EC 3.2.1.24, from jack bean, […]
The release of p-nitrophenol was measured continuously at 385 nm to determine initial velocities.[1] All kinetics were performed at 35 °C and started by substrate addition in a 1 mL assay medium (acetate buffer, 0.2 M, pH = 5) containing α-mannosidase (5 mU), substrate (varying concentration from Km/4 to Km value) in presence or absence of various concentrations of inhibitor. Ki […]
are only partially soluble in water, they were dissolved in DMSO for concentrated mother solutions and DMSO/buffer for diluted solutions with a final DMSO concentration under […]
2,5% in all vials. […]
1 Behr, J.-B.; Chevrier, C.; Defoin, A.; Tarnus, C.; Streith, J. Tetrahedron 2003, 59, 543–553.
2 Segel, I. H. Enzyme Kinetics; John Wiley & Sons, New York, 1975, p. 109–144.

The mark [1] stands for this setting: α-mannosidase EC 3.2.1.24 (5 mU), substrate p-nitrophenyl-α-D-mannopyranoside Km/4 to Km, acetate buffer 0.2 M pH 5, 35 °C, p-nitrophenol release at 385 nm, DMSO under 2,5%, Dixon graphical method, determined in duplicate, read-out: Ki.

SMILES strings stand for the structures. Read-outs that look alike come from different tables or passages of the source.

For orientation: Ki means a measure of affinity in units of concentration, obtained from inhibition or displacement. With `O=C1CN(Cc2cn(CCCCCCN3C[C@H](O)[C@@H](O)[C@H](O)[C@H]3CO)nn2)C(=O)CN(Cc2cn(CCCCCCN3C[C@H](O)[C@@H](O)[C@H](O)[C@H]3CO)nn2)C(=O)CN(Cc2cn(CCCCCCN3C[C@H](O)[C@@H](O)[C@H](O)[C@H]3CO)nn2)C(=O)CN(Cc2cn(CCCCCCN3C[C@H](O)[C@@H](O)[C@H](O)[C@H]3CO)nn2)C(=O)CN(Cc2cn(CCCCCCN3C[C@H](O)[C@@H](O)[C@H](O)[C@H]3CO)nn2)C(=O)CN1Cc1cn(CCCCCCN2C[C@H](O)[C@@H](O)[C@H](O)[C@H]2CO)nn1` [Compound 10a], the Ki under setting [1] was 65 ± 24 µM.
For the compound `O=C1CN(Cc2cn(CCCCCCCCCN3C[C@H](O)[C@@H](O)[C@H](O)[C@H]3CO)nn2)C(=O)CN(Cc2cn(CCCCCCCCCN3C[C@H](O)[C@@H](O)[C@H](O)[C@H]3CO)nn2)C(=O)CN(Cc2cn(CCCCCCCCCN3C[C@H](O)[C@@H](O)[C@H](O)[C@H]3CO)nn2)C(=O)CN(Cc2cn(CCCCCCCCCN3C[C@H](O)[C@@H](O)[C@H](O)[C@H]3CO)nn2)C(=O)CN(Cc2cn(CCCCCCCCCN3C[C@H](O)[C@@H](O)[C@H](O)[C@H]3CO)nn2)C(=O)CN1Cc1cn(CCCCCCCCCN2C[C@H](O)[C@@H](O)[C@H](O)[C@H]2CO)nn1` [Compound 10b], the “rp (relative inhibition potency)” value turned out to be 17 and the rp/n came to 2.8. In addition, the Ki under setting [1] was 11 ± 1 µM.
With `O=C1CN(Cc2cn(CCCCCCN3C[C@H](O)[C@@H](O)[C@H](O)[C@H]3CO)nn2)C(=O)CN(Cc2cn(CCCCCCN3C[C@H](O)[C@@H](O)[C@H](O)[C@H]3CO)nn2)C(=O)CN(Cc2cn(CCCCCCN3C[C@H](O)[C@@H](O)[C@H](O)[C@H]3CO)nn2)C(=O)CN(Cc2cn(CCCCCCN3C[C@H](O)[C@@H](O)[C@H](O)[C@H]3CO)nn2)C(=O)CN(Cc2cn(CCCCCCN3C[C@H](O)[C@@H](O)[C@H](O)[C@H]3CO)nn2)C(=O)CN(Cc2cn(CCCCCCN3C[C@H](O)[C@@H](O)[C@H](O)[C@H]3CO)nn2)C(=O)CN(Cc2cn(CCCCCCN3C[C@H](O)[C@@H](O)[C@H](O)[C@H]3CO)nn2)C(=O)CN1Cc1cn(CCCCCCN2C[C@H](O)[C@@H](O)[C@H](O)[C@H]2CO)nn1` [Compound 10c], the Ki was 21 ± 2 µM.
Still for that read-out and setting: for `O=C1CN(Cc2cn(CCCCCCCCCN3C[C@H](O)[C@@H](O)[C@H](O)[C@H]3CO)nn2)C(=O)CN(Cc2cn(CCCCCCCCCN3C[C@H](O)[C@@H](O)[C@H](O)[C@H]3CO)nn2)C(=O)CN(Cc2cn(CCCCCCCCCN3C[C@H](O)[C@@H](O)[C@H](O)[C@H]3CO)nn2)C(=O)CN(Cc2cn(CCCCCCCCCN3C[C@H](O)[C@@H](O)[C@H](O)[C@H]3CO)nn2)C(=O)CN(Cc2cn(CCCCCCCCCN3C[C@H](O)[C@@H](O)[C@H](O)[C@H]3CO)nn2)C(=O)CN(Cc2cn(CCCCCCCCCN3C[C@H](O)[C@@H](O)[C@H](O)[C@H]3CO)nn2)C(=O)CN(Cc2cn(CCCCCCCCCN3C[C@H](O)[C@@H](O)[C@H](O)[C@H]3CO)nn2)C(=O)CN1Cc1cn(CCCCCCCCCN2C[C@H](O)[C@@H](O)[C@H](O)[C@H]2CO)nn1` [Compound 10d] the value was 8 ± 3 µM.
On to `O=C1CN(Cc2cn(CCCCCCN3C[C@H](O)[C@@H](O)[C@H](O)[C@H]3CO)nn2)C(=O)CN(Cc2cn(CCCCCCN3C[C@H](O)[C@@H](O)[C@H](O)[C@H]3CO)nn2)C(=O)CN(Cc2cn(CCCCCCN3C[C@H](O)[C@@H](O)[C@H](O)[C@H]3CO)nn2)C(=O)CN(Cc2cn(CCCCCCN3C[C@H](O)[C@@H](O)[C@H](O)[C@H]3CO)nn2)C(=O)CN(Cc2cn(CCCCCCN3C[C@H](O)[C@@H](O)[C@H](O)[C@H]3CO)nn2)C(=O)CN(Cc2cn(CCCCCCN3C[C@H](O)[C@@H](O)[C@H](O)[C@H]3CO)nn2)C(=O)CN(Cc2cn(CCCCCCN3C[C@H](O)[C@@H](O)[C@H](O)[C@H]3CO)nn2)C(=O)CN(Cc2cn(CCCCCCN3C[C@H](O)[C@@H](O)[C@H](O)[C@H]3CO)nn2)C(=O)CN(Cc2cn(CCCCCCN3C[C@H](O)[C@@H](O)[C@H](O)[C@H]3CO)nn2)C(=O)CN1Cc1cn(CCCCCCN2C[C@H](O)[C@@H](O)[C@H](O)[C@H]2CO)nn1` [Compound 10e], for which the “rp (relative inhibition potency)” value is recorded as 21 and the rp/n was found to be 2.1. Where the note is “as E1 but single determination of Ki without duplicate”, this compound returned a Ki of 15 ± 10 µM.
Regarding `O=C1CN(Cc2cn(CCCCCCCCCN3C[C@H](O)[C@@H](O)[C@H](O)[C@H]3CO)nn2)C(=O)CN(Cc2cn(CCCCCCCCCN3C[C@H](O)[C@@H](O)[C@H](O)[C@H]3CO)nn2)C(=O)CN(Cc2cn(CCCCCCCCCN3C[C@H](O)[C@@H](O)[C@H](O)[C@H]3CO)nn2)C(=O)CN(Cc2cn(CCCCCCCCCN3C[C@H](O)[C@@H](O)[C@H](O)[C@H]3CO)nn2)C(=O)CN(Cc2cn(CCCCCCCCCN3C[C@H](O)[C@@H](O)[C@H](O)[C@H]3CO)nn2)C(=O)CN(Cc2cn(CCCCCCCCCN3C[C@H](O)[C@@H](O)[C@H](O)[C@H]3CO)nn2)C(=O)CN(Cc2cn(CCCCCCCCCN3C[C@H](O)[C@@H](O)[C@H](O)[C@H]3CO)nn2)C(=O)CN(Cc2cn(CCCCCCCCCN3C[C@H](O)[C@@H](O)[C@H](O)[C@H]3CO)nn2)C(=O)CN(Cc2cn(CCCCCCCCCN3C[C@H](O)[C@@H](O)[C@H](O)[C@H]3CO)nn2)C(=O)CN1Cc1cn(CCCCCCCCCN2C[C@H](O)[C@@H](O)[C@H](O)[C@H]2CO)nn1` [Compound 10f], affinity was put at a Ki of 5 ± 1 µM.
